The values that follow are results of earlier work, collected in patent US20250099443A1, “METHODS FOR SYNTHESIZING ALEUTIANAMINE AND ANALOGS THEREOF” (California Institute of Technology, priority 2023, published 2025).

In general, pIC50 refers to the negative decadic logarithm of the IC50, by convention in mol/L.

SMILES strings stand for the structures. pIC50: −log10 of the molar value.

The subject of this data set is human pancreatic adenocarcinoma cell line PANC-1.

Regarding `O=C1C2=C3C4=[N+](CCc5c[nH]c1c54)[C@@H]1C[C@]34S[C@@H](C=C4C=C1Br)N2` [Aleutianamine], the pIC50 (human pancreatic adenocarcinoma cell line PANC-1, read-out: IC50 against PANC-1) was 7.60. The “potency against PANC-1 relative to gemcitabine” value (times greater than that of gemcitabine) was “over 160 times”.
